Source: ChEMBL document CHEMBL1177689, “Structural characteristics of green tea catechins for formation of protein carbonyl in human serum albumin” (Bioorg Med Chem, 2010)

Tests used:
[1] = Chemical stability in 100 mM phosphate buffer at pH 7.4 at 100 uM after 60 mins by HPLC analysis; assay type: physicochemical; conditions: pH 7.4, 1 h
Albumin = Albumin (Homo sapiens, UniProt P02768); test: Binding affinity to human serum albumin in 100 mM phosphate buffer at pH 7.4 assessed as formation of biotin-LC-hydrazide labeled protein carbonyls at 100 uM pretreated 60 mins before biotin-LC-hydrazide challenge measured after 60 mins by SDS-PAGE/Western blotting; assay type: ADME; conditions: isolated protein, pH 7.4, 1 h
Albumin, sequence (P02768 whole entry): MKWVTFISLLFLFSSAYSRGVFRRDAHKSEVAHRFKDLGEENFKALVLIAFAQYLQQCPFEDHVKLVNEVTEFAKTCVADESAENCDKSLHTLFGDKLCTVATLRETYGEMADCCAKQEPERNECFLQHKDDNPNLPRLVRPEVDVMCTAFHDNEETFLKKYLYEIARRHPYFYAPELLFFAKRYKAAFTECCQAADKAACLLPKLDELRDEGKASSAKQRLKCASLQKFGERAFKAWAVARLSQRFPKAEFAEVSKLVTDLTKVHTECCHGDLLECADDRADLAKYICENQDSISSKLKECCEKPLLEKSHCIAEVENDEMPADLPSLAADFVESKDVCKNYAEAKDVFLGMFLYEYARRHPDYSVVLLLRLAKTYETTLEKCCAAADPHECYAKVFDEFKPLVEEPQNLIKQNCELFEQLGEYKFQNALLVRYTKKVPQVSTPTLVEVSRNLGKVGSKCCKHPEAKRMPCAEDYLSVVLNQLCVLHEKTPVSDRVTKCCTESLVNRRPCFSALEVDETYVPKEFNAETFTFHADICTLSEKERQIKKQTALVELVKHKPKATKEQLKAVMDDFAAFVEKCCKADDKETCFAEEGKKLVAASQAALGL

Structure (SMILES): COc1cc(C(=O)O[C@@H]2Cc3c(O)cc(O)cc3O[C@@H]2c2cc(O)c(O)c(O)c2)cc(O)c1O
- Stability [1]: Unstable
- Activity (Albumin): Active

Structure (SMILES): COC(=O)c1cc(O)c(O)c(O)c1 [GALLIC ACID METHYL ESTER]
- Activity (Albumin): Not Active

Structure (SMILES): COc1c(O)cc([C@H]2Oc3cc(O)cc(O)c3C[C@H]2OC(=O)c2cc(O)c(O)c(O)c2)cc1O
- Stability [1]: Stable
- Activity (Albumin): Active

Structure (SMILES): O=C(O)c1ccc(O)c(O)c1 [PROTOCATECHUIC ACID]
- Activity (Albumin): Not Active

Structure (SMILES): O=C(O)c1cccc(O)c1O [2,3-DIHYDROXYBENZOIC ACID]
- Activity (Albumin): Not Active

Structure (SMILES): O=C(O[C@@H]1Cc2c(O)cc(O)cc2O[C@@H]1c1ccc(O)c(O)c1)c1cc(O)c(O)c(O)c1 [EPICATECHIN GALLATE]
- Stability [1]: Stable
- Activity (Albumin): Active

Structure (SMILES): Oc1cc(O)c2c(c1)O[C@H](c1cc(O)c(O)c(O)c1)[C@H](O)C2 [EPIGALLOCATECHIN]
- Stability [1]: Unstable
- Activity (Albumin): Active

Structure (SMILES): Oc1cc(O)c2c(c1)O[C@H](c1ccc(O)c(O)c1)[C@H](O)C2 [(-)-EPICATECHIN]
- Stability [1]: Stable
- Activity (Albumin): Active

Structure (SMILES): COc1c(O)cc(C(=O)O[C@@H]2Cc3c(O)cc(O)cc3O[C@@H]2c2cc(O)c(O)c(O)c2)cc1O
- Activity (Albumin): Active

Structure (SMILES): O=C(O[C@@H]1Cc2c(O)cc(O)cc2O[C@@H]1c1cc(O)c(O)c(O)c1)c1cc(O)c(O)c(O)c1 [EPIGALOCATECHIN GALLATE]
- Stability [1]: Unstable
- Activity (Albumin): Active

Structure (SMILES): O=C(O)c1cc(O)cc(O)c1 [3,5-DIHYDROXYBENZOIC ACID]
- Activity (Albumin): Not Active

Structure (SMILES): Oc1cccc(O)c1O [PYROGALLOL]
- Activity (Albumin): Active
